The source of these data is US8097628B2, “Compounds” (Glaxo Group Limited, priority 2008, dated 2012).

Converted amounts (≈) assume the structure as drawn. Where a name gives a salt, the structure may show the parent alone. Read-outs that look alike come from different tables or passages of the source. Bounds are passed on as bounds.

The test concerns Mycobacterium tuberculosis H37Rv. Description: Mycobacterium tuberculosis H37Rv Inhibition Assay. In kind it is cell-based.
The mark [1] stands for this setting: ATCC 25618 / H37Rv, H37Rv strain (ATCC25618), Middlebrook 7H9, resazurin fluorescence, read-out: MtB MIC.
[2] abbreviates: ATCC 25618 / H37Rv, read-out: MtB MIC.
The mark [3] stands for this setting: H37Rv inhibition assay, read-out: MIC value.

Turning to `O=c1ccc2ncc(=O)n3c2n1CC3CN1CCC(NCc2cncc(Cl)c2)CC1` (stereo not drawn) [Example 42, 2-[(4-{[(5-chloro-3-pyridinyl)methyl]amino}-1-piperidinyl)methyl]-1,2-dihydro-3H,8H-2a,5,8a-triazaacenaphthylene-3,8-dione], the MIC (commonly the lowest concentration that inhibits growth of the organism) under setting [1] is 1.07 µg/mL (≈ 2.5 µM).
For `Cc1ncc(CNC2CCN(C[C@@H]3Cn4c(=O)ccc5ncc(=O)n3c54)CC2)cc1Br` [Example 51, (2R)-2-[(4-{[(5-bromo-6-methyl-3-pyridinyl)methyl]amino}-1-piperidinyl)methyl]-1,2-dihydro-3H,8H-2a,5,8a-triazaacenaphthylene-3,8-dione hydrochloride], the MIC under setting [2] worked out at 0.015 µg/mL.
For the compound `Cc1ncc(CNC2CCN(C[C@H]3Cn4c(=O)ccc5ncc(=O)n3c54)CC2)cc1Cl` [Example 53, (2S)-2-[(4-{[(5-chloro-6-methyl-3-pyridinyl)methyl]amino}-1-piperidinyl)methyl]-1,2-dihydro-3H,8H-2a,5,8a-triazaacenaphthylene-3,8-dione], the MIC under setting [1] is 0.83 µg/mL (≈ 1.88 µM).
On the same count and under the same terms, the value for `CCc1ncc(CNC2CCN(C[C@@H]3Cn4c(=O)ccc5ccc(=O)n3c54)CC2)cc1F` [Example 54, (1R)-1-[(4-{[(6-ethyl-5-fluoro-3-pyridinyl)methyl]amino}-1-piperidinyl)methyl]-1,2-dihydro-4H,9H-imidazo[1,2,3-ij]-1,8-naphthyridine-4,9-dione] was 2.19 µg/mL (≈ 5 µM).
On to `O=c1ccc2ccc(=O)n3c2n1C[C@H]3CN1CCC(NCc2ccc(C(F)(F)F)nc2)CC1` [Example 9, (1R)-1-{[4-({[6-(trifluoromethyl)-3-pyridinyl]methyl}amino)-1-piperidinyl]methyl}-1,2-dihydro-4H,9H-imidazo[1,2,3-ij]-1,8-naphthyridine-4,9-dione], for which the MIC under setting [2] was 0.14 µg/mL (≈ 0.305 µM).
Turning to `O=c1ccc2ncc(=O)n3c2n1CC3CN1CCC(NCc2ccc(C(F)(F)F)cc2)CC1` (stereo not drawn) [Example 28, 2-{[4-({[4-(trifluoromethyl)phenyl]methyl}amino)-1-piperidinyl]methyl}-1,2-dihydro-3H,8H-2a,5,8a-triazaacenaphthylene-3,8-dione], the MIC under setting [1] was found to be 0.144 µg/mL (≈ 0.313 µM).
Still for that read-out and setting: the value for `Cl.N#Cc1cc(CNC2CCN(C[C@@H]3Cn4c(=O)ccc5ncc(=O)n3c54)CC2)ccc1F` [Example 5, 5-{[(1-{[(2R)-3,8-dioxo-1,2-dihydro-3H,8H-2a,5,8a-triazaacenaphthylen-2-yl]methyl}-4-piperidinyl)amino]methyl}-2-fluorobenzonitrile hydrochloride] was 0.11 µg/mL.
On the same count and under the same terms, the same measure for `Cc1cc(CNC2CCN(CC3Cn4c(=O)ccc5ncc(=O)n3c54)CC2)cnc1F` (stereo not drawn) [Example 33, 2-[(4-{[(6-fluoro-5-methyl-3-pyridinyl)methyl]amino}-1-piperidinyl)methyl]-1,2-dihydro-3H,8H-2a,5,8a-triazaacenaphthylene-3,8-dione]: 0.531 µg/mL (≈ 1.25 µM).
`O=c1ccc2ncc(=O)n3c2n1CC3CN1CCC(NCc2ccc(Cl)c(C(F)(F)F)c2)CC1` (stereo not drawn) [Example 16, 2-{[4-({[4-chloro-3-(trifluoromethyl)phenyl]methyl}amino)-1-piperidinyl]methyl}-1,2-dihydro-3H,8H-2a,5,8a-triazaacenaphthylene-3,8-dione]: the MIC under setting [1] came out at 0.077 µg/mL (≈ 0.156 µM).
For `Cc1ccc(CNC2CCN(CC3Cn4c(=O)ccc5ncc(=O)n3c54)CC2)cc1[N+](=O)[O-]` (stereo not drawn) [Example 23, 2-[(4-{[(4-methyl-3-nitrophenyl)methyl]amino}-1-piperidinyl)methyl]-1,2-dihydro-3H,8H-2a,5,8a-triazaacenaphthylene-3,8-dione], the MIC under setting [1] worked out at 0.036 µg/mL (≈ 0.0799 µM).
Same read-out and setting: the value for `O=c1ccc2ncc(=O)n3c2n1C[C@@H]3CN1CCC(NCc2ccc(Cl)c(Cl)c2)CC1` [Example 47, (2S)-2-[(4-{[(3,4-dichlorophenyl)methyl]amino}-1-piperidinyl)methyl]-1,2-dihydro-3H,8H-2a,5,8a-triazaacenaphthylene-3,8-dione] was 0.072 µg/mL (≈ 0.156 µM).
Same read-out and setting: the value for `Cc1ncc(CNC2CCN(C[C@@H]3Cn4c(=O)ccc5ccc(=O)n3c54)CC2)cc1Cl.Cl` [Example 1, (1R)-1-[(4-{[(5-chloro-6-methyl-3-pyridinyl)methyl]amino}-1-piperidinyl)methyl]-1,2-dihydro-4H,9H-imidazo[1,2,3-ij]-1,8-naphthyridine-4,9-dione hydrochloride] was 0.04 µg/mL; that for `O=c1ccc2ncc(=O)n3c2n1CC3CN1CCC(NCc2ccc(Cl)cc2)CC1` (stereo not drawn) [Example 21, 2-[(4-{[(4-chlorophenyl)methyl]amino}-1-piperidinyl)methyl]-1,2-dihydro-3H,8H-2a,5,8a-triazaacenaphthylene-3,8-dione] was 0.266 µg/mL (≈ 0.625 µM); that for `Cc1ccc(CNC2CCN(CC3Cn4c(=O)ccc5ncc(=O)n3c54)CC2)cc1F` (stereo not drawn) [Example 43, 2-[(4-{[(3-fluoro-4-methylphenyl)methyl]amino}-1-piperidinyl)methyl]-1,2-dihydro-3H,8H-2a,5,8a-triazaacenaphthylene-3,8-dione] was 0.066 µg/mL (≈ 0.156 µM).
On to `Cl.O=c1ccc2ncc(=O)n3c2n1C[C@H]3CN1CCC(NCc2ccc(F)c(C(F)(F)F)c2)CC1` [Example 4, (2R)-2-{[4-({[4-fluoro-3-(trifluoromethyl)phenyl]methyl}amino)-1-piperidinyl]methyl}-1,2-dihydro-3H,8H-2a,5,8a-triazaacenaphthylene-3,8-dione hydrochloride], for which, under setting [1], the MIC was 0.04 µg/mL.
For `O=c1ccc2ncc(=O)n3c2n1CC3CN1CCC(NCc2cccc(Cl)c2)CC1` (stereo not drawn) [Example 22, 2-[(4-{[(3-chlorophenyl)methyl]amino}-1-piperidinyl)methyl]-1,2-dihydro-3H,8H-2a,5,8a-triazaacenaphthylene-3,8-dione], the MIC reads like this: under setting [1], 1.06 µg/mL (≈ 2.5 µM); under setting [3], over 1 µg/mL.
Regarding `O=c1ccc2ncc(=O)n3c2n1CC3CN1CCC(NCc2ccc(OC(F)(F)F)cc2)CC1` (stereo not drawn) [Example 27, 2-({4-[({4-[(trifluoromethyl)oxy]phenyl}methyl)amino]-1-piperidinyl}methyl)-1,2-dihydro-3H,8H-2a,5,8a-triazaacenaphthylene-3,8-dione], the MIC under setting [1] was found to be 2.38 µg/mL (≈ 5 µM) and the MIC under setting [3] is over 1 µg/mL.
On to `O=c1ccc2ncc(=O)n3c2n1CC3CN1CCC(NCc2cncc(Br)c2)CC1` (stereo not drawn) [Example 41, 2-[(4-{[(5-bromo-3-pyridinyl)methyl]amino}-1-piperidinyl)methyl]-1,2-dihydro-3H,8H-2a,5,8a-triazaacenaphthylene-3,8-dione], for which the minimum inhibitory concentration (MIC) under setting [1] came out at 0.884 µg/mL (≈ 1.88 µM).
Same read-out and setting: the same measure for `Cl.O=c1ccc2ncc(=O)n3c2n1CC3CN1CCC(NCc2ccc(Cl)c(Cl)c2)CC1` (stereo not drawn) [Example 36, 2-[(4-{[(3,4-dichlorophenyl)methyl]amino}-1-piperidinyl)methyl]-1,2-dihydro-3H,8H-2a,5,8a-triazaacenaphthylene-3,8-dione]: 0.015 µg/mL.
For `O=c1ccc2ncc(=O)n3c2n1CC3CN1CCC(NCc2ccc(Br)cn2)CC1` (stereo not drawn) [Example 40, 2-[(4-{[(5-bromo-2-pyridinyl)methyl]amino}-1-piperidinyl)methyl]-1,2-dihydro-3H,8H-2a,5,8a-triazaacenaphthylene-3,8-dione], the MIC under setting [1] is 1.18 µg/mL (≈ 2.5 µM) and the MIC under setting [3] is over 1 µg/mL.
As for `O=c1cnc2ccc(=O)n3c2n1C[C@H]3CN1CCC(NCc2ccc(Cl)c(Cl)c2)CC1` [Example 10, (1R)-1-[(4-{[(3,4-dichlorophenyl)methyl]amino}-1-piperidinyl)methyl]-1,2-dihydro-3H,8H-2a,5,8a-triazaacenaphthylene-3,8-dione], under setting [1], the minimal inhibitory concentration (MIC) is under 0.02 µg/mL.
With `COc1cc(CNC2CCN(CC3Cn4c(=O)ccc5ncc(=O)n3c54)CC2)ccc1C` (stereo not drawn) [Example 57, 2-{[4-({[4-methyl-3-(methyloxy)phenyl]methyl}amino)-1-piperidinyl]methyl}-1,2-dihydro-3H,8H-2a,5,8a-triazaacenaphthylene-3,8-dione], the MIC under setting [1] came to 1.09 µg/mL (≈ 2.5 µM).
For `Cc1cc(CNC2CCN(C[C@@H]3Cn4c(=O)ccc5ccc(=O)n3c54)CC2)ncc1Cl.Cl` [Example 7, (1R)-1-[(4-{[(5-chloro-4-methyl-2-pyridinyl)methyl]amino}-1-piperidinyl)methyl]-1,2-dihydro-4H,9H-imidazo[1,2,3-ij]-1,8-naphthyridine-4,9-dione hydrochloride], under setting [1], the MIC is 0.3 µg/mL.
`Cc1ncc(CNC2CCN(C[C@@H]3Cn4c(=O)cnc5ccc(=O)n3c54)CC2)cc1Br` [Example 55, (1R)-1-[(4-{[(5-bromo-6-methyl-3-pyridinyl)methyl]amino}-1-piperidinyl)methyl]-1,2-dihydro-3H,8H-2a,5,8a-triazaacenaphthylene-3,8-dione hydrochloride]: the minimal inhibitory concentration (MIC) under setting [2] turned out to be 0.04 µg/mL.
Turning to `N#Cc1ncc(CNC2CCN(C[C@@H]3Cn4c(=O)ccc5ccc(=O)n3c54)CC2)cc1Cl` [Example 49, 3-chloro-5-{[(1-{[(1R)-4,9-dioxo-1,2-dihydro-4H,9H-imidazo[1,2,3-ij]-1,8-naphthyridin-1-yl]methyl}-4-piperidinyl)amino]methyl}-2-pyridinecarbonitrile], under setting [1], the MIC came out at 0.07 µg/mL (≈ 0.155 µM).
On to `O=c1ccc2ncc(=O)n3c2n1CC3CN1CCC(NCc2ccc(F)c(F)c2)CC1` (stereo not drawn) [Example 44, 2-[(4-{[(3,4-difluorophenyl)methyl]amino}-1-piperidinyl)methyl]-1,2-dihydro-3H,8H-2a,5,8a-triazaacenaphthylene-3,8-dione], for which, under setting [1], the MIC was found to be 0.267 µg/mL (≈ 0.625 µM).
On the same count and under the same terms, the same measure for `Cc1cc(CNC2CCN(CC3Cn4c(=O)ccc5ncc(=O)n3c54)CC2)ccc1Cl` (stereo not drawn) [Example 34, 2-[(4-{[(4-chloro-3-methylphenyl)methyl]amino}-1-piperidinyl)methyl]-1,2-dihydro-3H,8H,2a,5,8a-triazaacenaphthylene-3,8-dione]: 0.069 µg/mL (≈ 0.157 µM).
For the compound `O=c1ccc2ncc(=O)n3c2n1C[C@@H]3CN1CCC(NCc2ccc(C(F)(F)F)nc2)CC1` [Example 48, (2S)-2-{[4-({[6-(trifluoromethyl)-3-pyridinyl]methyl}amino)-1-piperidinyl]methyl}-1,2-dihydro-3H,8H-2a,5,8a-triazaacenaphthylene-3,8-dione], the MIC under setting [1] amounted to 2.3 µg/mL (≈ 5 µM) and the MIC under setting [3] was over 1 µg/mL.
Turning to `CC(=O)OCc1ccc(CNC2CCN(C[C@@H]3Cn4c(=O)ccc5ccc(=O)n3c54)CC2)cc1Cl` [Example 71, (2-chloro-4-{[(1-{[(1R)-4,9-dioxo-1,2-dihydro-4H,9H-imidazo[1,2,3-ij]-1,8-naphthyridin-1-yl]methyl}-4-piperidinyl)amino]methyl}phenyl)methyl acetate], under setting [3], the minimal inhibitory concentration (MIC) is over 1 µg/mL.
